Patent publication US20230348426A1, “OXOPYRROLIDINE FPR2 AGONISTS” (Bristol-Myers Squibb Company, priority 2020, published 2023)

What was measured:
human FPR2 = human FPR2 (Homo sapiens (Human), UniProt P25090); assay: FPR2 cyclic adenosine monophosphate (cAMP) assay; format: cell-based; details: CHO cells overexpressing human FPR2; forskolin 5 µM; inhibition of cAMP production; read-out: hFPR2 cAMP2 EC50
Method in brief: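 Inhibition of forskolin-driven (5 µM) cAMP, with 200 µM IBMX, measured in human FPR2-expressing CHO cells, 2,000 per well, 30 min at room temperature; compounds tested 0.020 nM to 100 µM in 1% DMSO. HTRF 665/590 ratio converted to cAMP via calibration curve, then 4-parameter fit.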

human FPR1 = human FPR1 (Homo sapiens (Human), UniProt P21462); assay: FPR1 cyclic adenosine monophosphate (cAMP) assay; format: cell-based; details: CHO cells overexpressing human FPR1; forskolin 10 µM; inhibition of cAMP production; read-out: hFPR1 cAMP EC50
human FPR1, sequence (P21462 whole entry): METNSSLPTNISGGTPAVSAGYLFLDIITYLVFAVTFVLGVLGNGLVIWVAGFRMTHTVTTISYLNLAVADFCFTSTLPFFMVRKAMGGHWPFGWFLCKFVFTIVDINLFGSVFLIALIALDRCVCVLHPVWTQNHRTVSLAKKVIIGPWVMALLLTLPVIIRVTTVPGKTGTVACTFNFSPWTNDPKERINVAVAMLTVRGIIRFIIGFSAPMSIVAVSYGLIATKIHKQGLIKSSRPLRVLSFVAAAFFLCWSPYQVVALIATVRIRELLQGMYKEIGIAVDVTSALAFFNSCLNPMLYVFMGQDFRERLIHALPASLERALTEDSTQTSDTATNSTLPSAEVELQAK
Method in brief: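 Human FPR1-expressing CHO cells were used at 4,000 per well, with compound at 0.020 nM–100 µM in 1% DMSO. Potency came from a 4-parameter logistic fit.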

human FPR2, sequence (P25090 whole entry): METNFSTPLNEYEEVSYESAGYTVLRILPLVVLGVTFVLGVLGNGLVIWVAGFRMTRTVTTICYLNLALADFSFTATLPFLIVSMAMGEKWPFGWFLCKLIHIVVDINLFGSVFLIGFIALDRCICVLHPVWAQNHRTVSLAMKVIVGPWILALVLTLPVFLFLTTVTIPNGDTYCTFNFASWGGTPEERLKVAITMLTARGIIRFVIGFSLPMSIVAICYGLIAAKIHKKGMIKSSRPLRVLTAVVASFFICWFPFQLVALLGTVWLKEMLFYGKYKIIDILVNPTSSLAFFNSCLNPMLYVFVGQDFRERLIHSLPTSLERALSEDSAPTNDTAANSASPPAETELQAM

EC50 (human FPR2) | EC50 (human FPR1) | SMILES
9.3 nM | 150 nM | COc1cc(F)c([C@H]2[C@H](NC(=O)c3ccc(OC(F)(F)F)cc3)C(=O)N(c3cccn(CCO)c3=O)[C@H]2C)c(F)c1 [Example 301]
10 nM | 22 nM | COCCn1cccc(N2C[C@@H](c3c(F)cc(OC)cc3F)[C@H](NC(=O)c3ccc(OC(F)(F)F)cc3)C2=O)c1=O [Example 302]
9.6 nM | 390 nM | COc1cc(F)c([C@@H]2CN(c3nc(N4CCN(C)CC4)ccc3OC)C(=O)[C@H]2NC(=O)c2ccc(OC(F)F)cc2)c(F)c1 [Example 303]
9.6 nM | 90 nM | COc1cc(F)c([C@@H]2CN(c3cccn(C4COC4)c3=O)C(=O)[C@H]2NC(=O)c2ccc(OC(F)F)cc2)c(F)c1 [Example 304]
9.6 nM | 1300 nM | COc1cc(F)c([C@@H]2CN(c3cccnc3P(C)(C)=O)C(=O)[C@H]2NC(=O)c2ccc(Cl)cc2)c(F)c1 [Example 305]
9.8 nM | 250 nM | COc1cc(F)c([C@@H]2CN(c3cccn(CCN4CCS(=O)(=O)CC4)c3=O)C(=O)[C@H]2NC(=O)c2ccc(OC(F)F)cc2)c(F)c1 [Example 306]
9.9 nM | 1.8 nM | COCC(CO)n1cccc(N2C[C@@H](c3ccc(Cl)cc3)[C@H](NC(=O)c3ccc(OC(F)F)cc3)C2=O)c1=O (stereo partly shown) [Example 307]
9.9 nM | 180 nM | COc1cc(F)c([C@@H]2CN(c3cccn(CC(C)(C)O)c3=O)C(=O)[C@H]2NC(=O)c2ccc(OC(F)F)cc2)c(F)c1 [Example 308]
10 nM | 67 nM | COc1cc(F)c([C@@H]2CN(c3c(C)ccn(C)c3=O)C(=O)[C@H]2NC(=O)c2ccc(OC(F)F)cc2)c(F)c1 [Example 310]
10 nM | 1900 nM | COc1cc(F)c([C@@H]2CN(c3c(C(F)(F)F)ccn(C)c3=O)C(=O)[C@H]2NC(=O)c2ccc(OC(F)F)cc2)c(F)c1 [Example 311]
10 nM | 0.5 nM | COc1ccc([C@@H]2CN(c3c(C)ccn(CC4CC4)c3=O)C(=O)[C@H]2NC(=O)c2ccc(OC(F)(F)F)cc2)c(F)c1 [Example 312]
10 nM | 5400 nM | COc1cc(F)c([C@@H]2CN(c3nc(C(C)(C)O)ccc3F)C(=O)[C@H]2NC(=O)c2ccc(Cl)cc2)c(F)c1 [Example 313]
10 nM | 0.4 nM | COc1cc(F)c([C@@H]2CN(c3c(C)ccn(CC(OC)C(F)(F)F)c3=O)C(=O)[C@H]2NC(=O)c2ccc(OC(F)F)cc2)c(F)c1 (stereo partly shown) [Example 314]
10 nM | 9.6 nM | COCC(CO)n1cccc(N2C[C@@H](c3ccc(OC)cc3)[C@H](NC(=O)c3ccc(OC(F)F)cc3)C2=O)c1=O (stereo partly shown) [Example 315]
10 nM | 95 nM | COc1cc(F)c([C@@H]2CN(c3nc(C4CCOCC4)ccc3F)C(=O)[C@H]2NC(=O)c2ccc(OC(F)F)cc2)c(F)c1 [Example 316]
10 nM | 2.6 nM | COCC(C(=O)N(C)C)n1cccc(N2C[C@@H](c3ccc(Cl)cc3)[C@H](NC(=O)c3ccc(OC(F)F)cc3)C2=O)c1=O (stereo partly shown) [Example 317]
10 nM | > 10000 nM | COc1cc(F)c([C@@H]2CN(c3nc(N4C[C@@H](C)N(C)[C@@H](C)C4)ccc3C#N)C(=O)[C@H]2NC(=O)c2ccc(Cl)cc2)c(F)c1 [Example 318]
10 nM | 200 nM | CCn1cccc(N2C[C@@H](c3c(F)cc(OC)cc3F)[C@H](NC(=O)c3ccc(C#N)cc3)C2=O)c1=O [Example 319]
10 nM | 44 nM | COc1cc(F)c([C@@H]2CN(c3cccn(C4CCOC4)c3=O)C(=O)[C@H]2NC(=O)c2ccc(OC(F)F)cc2)c(F)c1 (stereo partly shown) [Example 320]

EC50 (human FPR2) | EC50 (human FPR1) | SMILES
10 nM | 570 nM | COc1cc(F)c([C@@H]2CN(c3cccn(CC(F)F)c3=O)C(=O)[C@H]2NC(=O)c2ccc(C#N)cc2)c(F)c1 [Example 321]
10 nM | 97 nM | COCCn1cc(F)cc(N2C[C@@H](c3c(F)cc(OC)cc3F)[C@H](NC(=O)c3ccc(OC(F)(F)F)cc3)C2=O)c1=O [Example 322]
11 nM | 750 nM | COc1cc(F)c([C@@H]2CN(c3cc(NC(C)=O)cn(C)c3=O)C(=O)[C@H]2NC(=O)c2ccc(OC(F)F)cc2)c(F)c1 [Example 323]
11 nM | 130 nM | COc1cc(F)c([C@@H]2CN(c3ccc(C)n(C)c3=O)C(=O)[C@H]2NC(=O)c2ccc(OC(F)F)cc2)c(F)c1 [Example 324]
11 nM | 1.6 nM | COCC(CO)n1ccc(C)c(N2C[C@@H](c3c(F)cc(OC)cc3F)[C@H](NC(=O)c3ccc(OC(F)(F)F)cc3)C2=O)c1=O (stereo partly shown) [Example 325]
11 nM | 35 nM | COc1cc(F)c([C@@H]2CN(c3nc(N4CCC(O)C4=O)ccc3F)C(=O)[C@H]2NC(=O)c2ccc(OC(F)(F)F)cc2)c(F)c1 (stereo partly shown) [Example 326]
12 nM | 1700 nM | COc1cc(F)c([C@@H]2CN(c3nccc(NC4COC4)c3C(F)(F)F)C(=O)[C@H]2NC(=O)c2ccc(Cl)cc2)c(F)c1 [Example 327]
12 nM | 610 nM | COc1cc(F)c([C@@H]2CN(c3nc(N4C[C@@H]5C[C@H]4CN5C)ccc3OC)C(=O)[C@H]2NC(=O)c2ccc(OC(F)F)cc2)c(F)c1 [Example 328]
13 nM | 3700 nM | COc1cc(F)c([C@@H]2CN(c3cc(C#N)cn(C)c3=O)C(=O)[C@H]2NC(=O)c2ccc(OC(F)F)cc2)c(F)c1 [Example 330]
13 nM | 5800 nM | COc1cc(F)c([C@@H]2CN(c3nc(N4C[C@@H](C)N(C)[C@@H](C)C4)ccc3C#N)C(=O)[C@H]2NC(=O)c2ccc(OC(F)F)cc2)c(F)c1 [Example 332]
14 nM | 5700 nM | COc1cc(F)c([C@@H]2CN(c3nc(N4CCN(C)CC4)ccc3C(F)F)C(=O)[C@H]2NC(=O)c2ccc(Cl)cc2)c(F)c1 [Example 333]
14 nM | 480 nM | COc1cc(F)c([C@@H]2CN(c3nccc(N4C[C@@H]5C[C@H]4CN5C)c3C(F)(F)F)C(=O)[C@H]2NC(=O)c2ccc(Cl)cc2)c(F)c1 [Example 334]
15 nM | 450 nM | COc1cc(F)c([C@@H]2CN(C3CCC3)C(=O)[C@H]2NC(=O)c2ccc(OC(F)(F)F)cc2)c(F)c1 [Example 335]
17 nM | 60 nM | COCCn1c(C)ccc(N2C[C@@H](c3c(F)cc(OC)cc3F)[C@H](NC(=O)c3ccc(OC(F)F)cc3)C2=O)c1=O [Example 336]
17 nM | 4300 nM | COc1cc(F)c([C@@H]2CN(c3c(C(F)(F)F)ccn(C)c3=O)C(=O)[C@H]2NC(=O)c2ccc(Cl)cc2)c(F)c1 [Example 337]
23 nM | 0.6 nM | COCCn1ccc(C)c(N2C[C@@H](c3ccc(Cl)cc3)[C@H](NC(=O)c3ccc(OC(F)(F)F)cc3)C2=O)c1=O [Example 339]
23 nM | 1.1 nM | COCCn1ccc(C)c(N2C[C@@H](c3ccc(Cl)cc3)[C@H](NC(=O)c3ccc(OC(F)F)cc3)C2=O)c1=O [Example 340]
23 nM | 4100 nM | COc1cc(F)c([C@@H]2CN(c3c(F)cccc3C#N)C(=O)[C@H]2NC(=O)c2ccc(Cl)cc2)c(F)c1 [Example 341]
32 nM | 830 nM | COCCn1cccc(N2C[C@@H](c3c(F)cc(OC)cc3F)[C@H](NC(=O)c3ccc(OC)cc3)C2=O)c1=O [Example 342]
